Tests used:
[1] = test system: rat mammary stromal cells (MSC); assay: In vitro angiogenesis assay: microcapillary network formation on EHS-RBM; type: cell-based; conditions: 7 days in culture; for microcapillary network diameter: 75, 100 and 125 μM
Experimental: An in vitro angiogenesis assay, the formation of microcapillary networks by rat mammary stromal vascular precursor cells on the angiogenic substrate, EHS-RBM, was used to compare the isomer- and concentration-dependent effects of mixed CLA isomers and c9,t11- and t10,c12-CLA. Rat mammary stromal cells (MSC) have the ability to act as true vascular precursors and were isolated from mammary glands as described (Zangani et al., 1999).
CLA-containing media was prepared as follows. Briefly, 18.1 μl of 5N NaOH was added to 28.2 μl of CLA (0.9 g/ml, FW 280) in a small Erlenmeyer flask, followed by vortexing, to make the sodium salt. Warm fetal calf serum (10 ml) was added, sonicated 3–4× with brief pulses (5 sec each), and then gassed with nitrogen and the flask sealed with parafilm. The mixture was incubated in a sonicating water bath for 30 min, followed by 5 min incubation in a 50° C. water bath. FBS (11.9 ml) was added to the flask, to bring the CLA to a final 33× concentration (4.125 mM).
Early passage MSC (prior to passage 4) were cultured in a 24 well plate at 2×10^4 cells/well, plated onto 0.4 ml EHS-RBM in the presence of phenol red free F12/DME with 3% FCS, supplemented with 0, 25, 50, 75, 100 or 125 μM CLA. After 7 days in culture, when the cells had formed multiple colonies of three-dimensional networks of tubules (Zangani et al., 1999), capillary networks were photographed, and the extent of network formation was assessed by measuring four planar diameters, at 45° intervals, of the branching colonies. The five largest colonies in each of three wells per group were assessed, for a total of fifteen colonies for each concentration of CLA per experiment. This experiment was replicated twice.

[2] = test system: mouse epidermal carcinogenesis; conditions: Ha et al, 1987; Belury et al, 1996; cited from earlier work
[3] = test system: MDA-MB468 breast cancer cells and DU-145 prostatic tumor cells; conditions: MDA-MB468 and DU-145 cells in SCID mice; Visonneau et al, 1997; Cesano et al, 1998; cited from earlier work
[4] = test system: Flk-1 (VEGF receptor 2); assay: Western blot of Flk-1 in whole mammary gland lysates; type: in vivo, CD2/F1 mice
Experimental: (§1) Alternately, for analysis of whole mammary gland levels of VEGF and Flk-1, 10 mice per group were placed on diet at 8 weeks of age, and mice were sacrificed 7 weeks after diet initiation. Mammary glands were snap-frozen in liquid nitrogen to be utilized for preparation of whole gland lysates.
Whole mammary glands (gland four) were dissected after sacrifice from mice fed control- or CLA-supplemented diets, snap-frozen in liquid nitrogen and stored at −80° C. Lysates were prepared by pulverizing the frozen glands in a liquid nitrogen-cooled metal pulverizer to a fine powder. The powder was weighed in a pre-tared microfuge tube, and resuspended in ice-cold Triton X-100 lysis buffer (50 mM Tris, pH7.5 at room temperature, 250 mM NaCl, 5 mM EDTA, 0.1% (v/v) Triton X-100, supplemented with 0.1 mM PMSF, 20 ng/ml leupeptin and 100 ng/ml soybean trypsin inhibitor) using 2 ml per gram of tissue. The powder was then homogenized in an ice-cold microfuge tube, using 10–15 strokes of a fitted glass homogenizer. Samples were incubated on ice for 30 minutes, and then centrifuged for 10 min at 4° C. at 8,000×g. The supernatants were then aliquoted and frozen at −20° C. An aliquot of the sample was used to determine protein concentration, using the Bio-Rad protein assay. Immediately before electrophoresis, samples were prepared for loading by adding 4× Laemmli SDS-sample buffer at a 1:3 ratio to the thawed sample. The sample was then boiled, sonicated, and centrifuged for 10 min at 4° C., 8,000×g in a microfuge, before loading supernatant. Lysates from 7 mice per dietary group were analyzed.
Lysates were loaded using equal protein per well, and proteins were separated on a 7.5% reducing SDS-gel according to the method of Laemmli well known in the art. Proteins were transferred to nitrocellulose using a Bio-Rad Transblot Apparatus (Hercules, Calif.). Blots were blocked with Blotto (TBS (10 mM Tris, pH 8.0, 150 mM NaCl), 0.5% Tween 20, 5% (w/v) non-fat dry milk). All antibody incubations and subsequent rinses were performed in Blotto, with vigorous rocking. Rabbit anti-VEGF-A was used at a final concentration of 2 μg/ml, and rabbit anti-Flk-1 was used at a final concentration of 1 μg/ml. To control for variability in loading, the same blots used for VEGF were stripped and probed for Flk-1. The blots were then stripped again and probed with mouse antisera to hsc70, at a 1:20,000 final concentration. Hsc70 was used as a control for cellular protein loading of western blots, as a constitutively expressed cytoplasmic housekeeping protein. […] Specific antibody-reactive bands were quantified by densitometry using a Model 300A Scanning Laser Densitometer and ImageQuant software (Molecular Dynamics).

[5] = test system: VEGF-A; assay: Serum VEGF analysis by ELISA after EHS-RBM challenge; type: in vivo, CD2/F1 mice; conditions: for reduction of average serum VEGF levels: 7 days after angiogenic challenge, relative to control diet
Experimental: (§2) To determine the effects of dietary CLA on angiogenesis, the in vivo angiogenesis model of Kibbey et al., 1992 was utilized. Briefly, CD2/F1 female mice were placed on diets with or without CLA at 8 or 12 weeks of age, with 10–12 mice per group per experiment. After 6 weeks of diet, mice were given bilateral injections of EHS-RBM containing 1.25 μg/ml bFGF and 60 μg/ml heparan sulfate using a 25-gauge needle, into the region of mammary gland four. Mice were sacrificed 7 days after injection. Blood was collected from the trunk for preparation of plasma for analysis of VEGF levels. Pellets and adjacent normal mammary gland tissue were removed and formalin fixed for paraffin embedding. This experiment was repeated four times.
Serum VEGF (VEGF-A) levels were assessed by ELISA using a commercial kit (Quantikine M mouse VEGF ELISA, R&D Systems), as per the manufacturer's instructions. VEGF levels were assessed in sera from mice which had been on diet for a total of 7 weeks, and had received EHS-RBM angiogenic challenge 1 week prior to sacrifice.

[6] = test system: EHS-RBM pellet (angiogenic challenge); assay: In vivo EHS-RBM angiogenesis assay; set-up: species or system CD2/F1 mice
Experimental: as §2
Microsope visual fields, visualized with a 20× objective were analyzed for cellular invasion, and with a 40× objective for the presence of functional blood vessels, for a final magnification of 200 or 400×, respectively. The ability of dietary CLA to affect cellular invasion into the EHS-RBM pellet was analyzed on H&E-stained paraffin sections by counting the number of nuclei per field, excluding all acellular regions that remained uninvaded. A total of 68 fields were assessed in 13 pellets from mice on control diets, 75 fields were assessed from 9 pellets from mice on 1% CLA diets, and 62 fields analyzed from 13 pellets, obtained from mice on 2% CLA diets. We analyzed all pellets retrieved from the animals; there was a decline in the number of visible pellets in CLA-fed animals.
Functional angiogenesis was quantified by determining the number of cell-lined structures with patent lumen and red blood cells. H&E stained paraffin sections were visualized by epifluorescent illumination; red blood cells are strongly fluorescent due to their intensely eosinophilic cytoplasm. This intensity is easily distinguished from the dimly fluorescent nucleated cells. The relative dimness of nucleated cells may be partly due to the presence of nuclear and/or cytoplasmic hematoxylin, which quenches fluorescence. A total of 162 fields were analyzed from 21 slides from control diet animals, 158 fields were analyzed from 21 slides from 1% CLA diet animals, and 174 fields were analyzed from 13 slides from 2% CLA diet animals.

[7] = test system: aberrant crypt foci in the rat colon; conditions: Liew et al, 1995; cited from earlier work
[8] = test system: mouse forestomach neoplasia; conditions: Ha et al, 1990; cited from earlier work
[9] = test system: VEGF; assay: Western blot of VEGF in whole mammary gland lysates; type: in vivo, CD2/F1 mice; conditions: dietary CLA 7 weeks, no angiogenic challenge, dose-dependent
Experimental: as §1
Whole mammary glands (gland four) were dissected after sacrifice from mice fed control- or CLA-supplemented diets, snap-frozen in liquid nitrogen and stored at −80° C. Lysates were prepared by pulverizing the frozen glands in a liquid nitrogen-cooled metal pulverizer to a fine powder. The powder was weighed in a pre-tared microfuge tube, and resuspended in ice-cold Triton X-100 lysis buffer (50 mM Tris, pH7.5 at room temperature, 250 mM NaCl, 5 mM EDTA, 0.1% (v/v) Triton X-100, supplemented with 0.1 mM PMSF, 20 ng/ml leupeptin and 100 ng/ml soybean trypsin inhibitor) using 2 ml per gram of tissue. The powder was then homogenized in an ice-cold microfuge tube, using 10–15 strokes of a fitted glass homogenizer. […] Lysates from 7 mice per dietary group were analyzed.
Lysates were loaded using equal protein per well, and proteins were separated on a 7.5% reducing SDS-gel according to the method of Laemmli well known in the art. […] Specific antibody-reactive bands were quantified by densitometry using a Model 300A Scanning Laser Densitometer and ImageQuant software (Molecular Dynamics).

[10] = test system: rat mammary carcinogenesis; conditions: Ip et al, 1991, 1994, 1995; cited from earlier work

CCCCCC/C=C/C=C\CCCCCCCC(=O)O [c9,t11-CLA, cis-9, trans-11 CLA]
microcapillary network diameter [1]: significantly decreased

CCCCC/C=C\C=C\CCCCCCCCC(=O)O [t10,c12-CLA]
microcapillary network size ([1]; 100 and 125 μM): significant decreased

Conjugated Linoleic Acid [CLA]
DMBA-induced mouse epidermal carcinogenesis [2]: inhibit | size and metastatic spread of human tumor cells [3]: reduce | expression of Flk-1 protein on western blot ([4]; animals fed 2% CLA): uniformly low expression | mammary gland Flk-1 60 kDa band, scanning densitometry ([4]; dietary CLA, dose-dependent): statistically significant decrease | mammary gland Flk-1 200 kDa band, scanning densitometry ([4]; dietary CLA, dose-dependent): statistically significant decrease | expression of Flk-1 protein on western blot ([4]; mice fed 1% CLA): variable expression | reduction of average serum VEGF levels ([5]; 1% CLA diet for 7 weeks): approximately 40% | reduction of average serum VEGF levels ([5]; 2% CLA diet for 7 weeks): approximately 40% | systemic effect on serum VEGF with or without angiogenic challenge ([5]; data not shown): only significant in mice stimulated by angiogenic challenge | functional angiogenesis within the EHS pellet (structures containing red blood cells) ([6]; 1% CLA diet vs control diet): significantly decreased | functional angiogenesis within the EHS pellet (structures containing red blood cells) ([6]; 2% CLA diet vs control diet): significantly decreased | cellular invasion, number of nuclei per field in the invaded regions of the pellet ([6]; CLA-fed mice (1% or 2% CLA diet) vs control diet, 7 days after EHS-RBM injection): significantly decreased | average measured depth of cellular infiltration of the pellet ([6]; CLA-fed vs control mice, data not shown): not different | microcapillary network diameter [1]: significantly decreased | total number of colonies and size/extent of their branching ([1]; MSC on EHS-RBM): inhibited | incidence of aberrant crypt foci in the rat colon [7]: inhibit | BP-induced mouse forestomach neoplasia [8]: inhibit | mammary gland VEGF 28 kDa band, densitometry normalized to hsc70 [9]: significantly decreased | mammary gland VEGF 54 kDa band, densitometry normalized to hsc70 [9]: significantly decreased | DMBA- and NMU-induced rat mammary carcinogenesis [10]: inhibit

Reference: patent US6977271B1, “Method for inhibition of angiogenesis and vasculogenesis” (Health Research, Inc., priority 2001, dated 2005)
